Measured values taken from patent US20150105252A1, “SUBSTITUTED PYRAZOLES AS HERBICIDES” (E I DU PONT DE NEMOURS AND COMPANY, priority 2013, published 2015).

Key:
[1] = tested on: barnyardgrass; test: Test C preemergence; type: in vivo, Echinochloa crus-galli; conditions: for Plant response rating (scale of 0 to 100), Barnyardgrass: Preemergence, 250 g ai/ha; for Barnyardgrass plant response rating / Plant response rating, Barnyardgrass: preemergence, 13 to 15 days; for Barnyardgrass plant response rating: scale 0 to 100 (0 no effect, 100 complete control); for Plant response rating, Barnyardgrass: 125 g ai/ha, scale 0 to 100, 0 = no effect, 100 = complete control
Procedure, shortened: (§1)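 Postemergence values come from plants sprayed at the 1- to 4-leaf stage (2–18 cm) in peat moss–vermiculite medium; preemergence values from seeds treated in a loam–sand blend. Both evaluated visually against controls after 13–15 greenhouse days, scale 0–100.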

[2] = tested on: velvetleaf; test: Test C postemergence; type: in vivo, Abutilon theophrasti; conditions: for Plant response rating (scale of 0 to 100 where 0 is no effect and 100 is complete control), Velvetleaf: Postemergence, 31 g ai/ha, visually evaluated after 13 to 15 days; for Velvetleaf plant response rating / Plant response rating, Velvetleaf: postemergence; for Velvetleaf plant response rating: 62 g ai/ha, scale 0 to 100
Procedure, shortened: as §1

[3] = tested on: wheat; test: Test A postemergence; type: in vivo, Triticum aestivum
Procedure, shortened: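 Injury readout: eye-scored versus untreated controls, 0 to 100. Exposure period: ~10 days, greenhouse. Application: soil-directed spray over sown seed (pre) or spray on seedlings 2–10 cm tall with one or two leaves (post), compound carried in non-phytotoxic solvent including surfactant.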

[4] = tested on: morningglory; test: Test C postemergence; type: in vivo, Ipomoea coccinea; conditions: for Plant response rating (scale of 0 to 100 where 0 is no effect and 100 is complete control), Morningglory: Postemergence, 31 g ai/ha, visually evaluated after 13 to 15 days; for Morningglory plant response rating / Plant response rating, Morningglory: postemergence; for Morningglory plant response rating: 62 g ai/ha, scale 0 to 100
Procedure, shortened: as §1

[5] = tested on: soybean; test: Test C preemergence; type: in vivo, Glycine max; conditions: for Plant response rating (scale of 0 to 100), Soybean: Preemergence, 250 g ai/ha; for Soybean plant response rating / Plant response rating, Soybean: preemergence, 13 to 15 days; for Soybean plant response rating: scale 0 to 100 (0 no effect, 100 complete control); for Plant response rating, Soybean: 125 g ai/ha, scale 0 to 100, 0 = no effect, 100 = complete control
Procedure, shortened: as §1

[6] = tested on: morningglory; test: Test C preemergence; type: in vivo, Ipomoea coccinea; conditions: for Plant response rating (scale of 0 to 100), Morningglory: Preemergence, 250 g ai/ha; for Morningglory plant response rating / Plant response rating, Morningglory: preemergence, 13 to 15 days; for Morningglory plant response rating: scale 0 to 100 (0 no effect, 100 complete control); for Plant response rating, Morningglory: 125 g ai/ha, scale 0 to 100, 0 = no effect, 100 = complete control
Procedure, shortened: as §1

[7] = tested on: oat, wild; test: Test C postemergence; type: in vivo, Avena fatua; conditions: for Plant response rating (scale of 0 to 100 where 0 is no effect and 100 is complete control), Oat, Wild: Postemergence, 31 g ai/ha, visually evaluated after 13 to 15 days; for Oat, Wild plant response rating / Plant response rating, Oat, Wild: postemergence; for Oat, Wild plant response rating: 62 g ai/ha, scale 0 to 100
Procedure, shortened: as §1

[8] = tested on: velvetleaf; test: Test C preemergence; type: in vivo, Abutilon theophrasti; conditions: for Plant response rating (scale of 0 to 100), Velvetleaf: Preemergence, 250 g ai/ha; for Velvetleaf plant response rating / Plant response rating, Velvetleaf: preemergence, 13 to 15 days; for Velvetleaf plant response rating: scale 0 to 100 (0 no effect, 100 complete control); for Plant response rating, Velvetleaf: 125 g ai/ha, scale 0 to 100, 0 = no effect, 100 = complete control
Procedure, shortened: as §1

[9] = tested on: sedge, umbrella; test: Test B flood; type: in vivo, Cyperus difformis; conditions: 250 g ai/ha, visual rating on 0 to 100 scale (0 no effect, 100 complete control), 13 to 15 days
Procedure, shortened: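 Response scored visually, 0–100 relative to controls, 13–15 days after the compound was applied into paddy water; plants were at the 2-leaf stage in pots kept flooded to 3 cm.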

[10] = tested on: chickweed; test: Test C postemergence; type: in vivo, Stellaria media; conditions: for Plant response rating (scale of 0 to 100 where 0 is no effect and 100 is complete control), Chickweed: Postemergence, 31 g ai/ha, visually evaluated after 13 to 15 days; for Chickweed plant response rating / Plant response rating, Chickweed: postemergence; for Chickweed plant response rating: 62 g ai/ha, scale 0 to 100
Procedure, shortened: as §1

[11] = tested on: lambsquarters; test: Test C preemergence; type: in vivo, Chenopodium album; conditions: for Plant response rating (scale of 0 to 100), Lambsquarters: Preemergence, 250 g ai/ha; for Lambsquarters plant response rating / Plant response rating, Lambsquarters: preemergence, 13 to 15 days; for Lambsquarters plant response rating: scale 0 to 100 (0 no effect, 100 complete control); for Plant response rating, Lambsquarters: 125 g ai/ha, scale 0 to 100, 0 = no effect, 100 = complete control
Procedure, shortened: as §1

[12] = tested on: johnsongrass; test: Test C postemergence; type: in vivo, Sorghum halepense; conditions: for Plant response rating (scale of 0 to 100 where 0 is no effect and 100 is complete control), Johnsongrass: Postemergence, 31 g ai/ha, visually evaluated after 13 to 15 days; for Johnsongrass plant response rating / Plant response rating, Johnsongrass: postemergence; for Johnsongrass plant response rating: 62 g ai/ha, scale 0 to 100
Procedure, shortened: as §1

[13] = 250 g ai/ha, scale 0 to 100 (0 no effect, 100 complete control)
[14] = 125 g ai/ha, scale 0 to 100, 0 no effect, 100 complete control
[15] = Postemergence, 500 g ai/ha, 0 to 100 scale (0 no effect, 100 complete control)
[16] = postemergence, 125 g ai/ha, about 10 days, visual rating on 0 to 100 scale (0 no effect, 100 complete control)

## CCCc1cc(C(=O)NCC(F)(F)F)nn1Cc1ccnc(OC(F)F)c1 [Compound 127]
[1]
  Plant response rating (scale of 0 to 100), Barnyardgrass: 95
  Plant response rating, Barnyardgrass: 95
[1]; 31 g ai/ha
  Barnyardgrass plant response rating: 45
[1]; 62 g ai/ha
  Barnyardgrass plant response rating: 60
[2]
  Plant response rating (scale of 0 to 100 where 0 is no effect and 100 is complete control), Velvetleaf: 10
  Velvetleaf plant response rating: 15
[2]; [13]
  Plant response rating, Velvetleaf: 70
[2]; [14]
  Plant response rating, Velvetleaf: 45
[3]; [15]
  Wheat plant response rating: 90
[3]; [16]
  Wheat plant response rating: 80
[4]
  Plant response rating (scale of 0 to 100 where 0 is no effect and 100 is complete control), Morningglory: 65
  Morningglory plant response rating: 70
[4]; [13]
  Plant response rating, Morningglory: 85
[4]; [14]
  Plant response rating, Morningglory: 60
[5]
  Plant response rating (scale of 0 to 100), Soybean: 85
  Plant response rating, Soybean: 65
[5]; 31 g ai/ha, visual rating
  Soybean plant response rating: 30
[5]; 62 g ai/ha
  Soybean plant response rating: 45
[6]
  Plant response rating (scale of 0 to 100), Morningglory: 100
  Plant response rating, Morningglory: 100
[6]; 31 g ai/ha, visual rating
  Morningglory plant response rating: 60
[6]; 62 g ai/ha
  Morningglory plant response rating: 55
[7]
  Plant response rating (scale of 0 to 100 where 0 is no effect and 100 is complete control), Oat, Wild: 5
  Oat, Wild plant response rating: 5
[7]; [13]
  Plant response rating, Oat, Wild: 35
[7]; [14]
  Plant response rating, Oat, Wild: 5
[8]
  Plant response rating (scale of 0 to 100), Velvetleaf: 100
  Plant response rating, Velvetleaf: 100
[8]; 31 g ai/ha, visual rating
  Velvetleaf plant response rating: 60
[8]; 62 g ai/ha
  Velvetleaf plant response rating: 60
[9]
  Plant response rating, Sedge, Umbrella: 85
[10]
  Plant response rating (scale of 0 to 100 where 0 is no effect and 100 is complete control), Chickweed: 75
  Chickweed plant response rating: 80
[10]; [13]
  Plant response rating, Chickweed: 80
[10]; [14]
  Plant response rating, Chickweed: 80
[11]
  Plant response rating (scale of 0 to 100), Lambsquarters: 100
  Plant response rating, Lambsquarters: 90
[11]; 31 g ai/ha, visual rating
  Lambsquarters plant response rating: 100
[11]; 62 g ai/ha
  Lambsquarters plant response rating: 80
[12]
  Plant response rating (scale of 0 to 100 where 0 is no effect and 100 is complete control), Johnsongrass: 5
  Johnsongrass plant response rating: 5
[12]; [13]
  Plant response rating, Johnsongrass: 25
[12]; [14]
  Plant response rating, Johnsongrass: 30

## CCOc1cc(C(=O)NCC(F)(F)F)nn1Cc1ccnc(OC(F)F)c1 [Compound 128]
[1]
  Plant response rating (scale of 0 to 100), Barnyardgrass: 100
  Plant response rating, Barnyardgrass: 98
[1]; 31 g ai/ha
  Barnyardgrass plant response rating: 80
[1]; 62 g ai/ha
  Barnyardgrass plant response rating: 90
[2]
  Plant response rating (scale of 0 to 100 where 0 is no effect and 100 is complete control), Velvetleaf: 10
  Velvetleaf plant response rating: 15
[2]; [13]
  Plant response rating, Velvetleaf: 65
[2]; [14]
  Plant response rating, Velvetleaf: 35
[3]; [15]
  Wheat plant response rating: 90
[3]; [16]
  Wheat plant response rating: 70
[4]
  Plant response rating (scale of 0 to 100 where 0 is no effect and 100 is complete control), Morningglory: 75
  Morningglory plant response rating: 65
[4]; [13]
  Plant response rating, Morningglory: 80
[4]; [14]
  Plant response rating, Morningglory: 45
[5]
  Plant response rating (scale of 0 to 100), Soybean: 90
  Plant response rating, Soybean: 80
[5]; 31 g ai/ha, visual rating
  Soybean plant response rating: 35
[5]; 62 g ai/ha
  Soybean plant response rating: 55
[6]
  Plant response rating (scale of 0 to 100), Morningglory: 100
  Plant response rating, Morningglory: 98
[6]; 31 g ai/ha, visual rating
  Morningglory plant response rating: 75
[6]; 62 g ai/ha
  Morningglory plant response rating: 70
[7]
  Plant response rating (scale of 0 to 100 where 0 is no effect and 100 is complete control), Oat, Wild: 5
  Oat, Wild plant response rating: 10
[7]; [13]
  Plant response rating, Oat, Wild: 20
[7]; [14]
  Plant response rating, Oat, Wild: 25
[8]
  Plant response rating (scale of 0 to 100), Velvetleaf: 100
  Plant response rating, Velvetleaf: 100
[8]; 31 g ai/ha, visual rating
  Velvetleaf plant response rating: 5
[8]; 62 g ai/ha
  Velvetleaf plant response rating: 100
[9]
  Plant response rating, Sedge, Umbrella: 90
[10]
  Plant response rating (scale of 0 to 100 where 0 is no effect and 100 is complete control), Chickweed: 70
  Chickweed plant response rating: 75
[10]; [13]
  Plant response rating, Chickweed: 95
[10]; [14]
  Plant response rating, Chickweed: 85
[11]
  Plant response rating (scale of 0 to 100), Lambsquarters: 98
  Plant response rating, Lambsquarters: 98
[11]; 31 g ai/ha, visual rating
  Lambsquarters plant response rating: 98
[11]; 62 g ai/ha
  Lambsquarters plant response rating: 100
[12]
  Plant response rating (scale of 0 to 100 where 0 is no effect and 100 is complete control), Johnsongrass: 5
  Johnsongrass plant response rating: 5
[12]; [13]
  Plant response rating, Johnsongrass: 10
[12]; [14]
  Plant response rating, Johnsongrass: 5
